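Cells were grown in 96-well plates and exposed to each compound for 48 hours at five concentrations; endpoints were interpolated linearly between bracketing concentrations, or set to the highest concentration if not reached. GI50: concentration for 50% inhibition of growth.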 The source made the active and inactive calls. Cut-off read from the data, not from the text of the source: active = GI50 up to about 1.1 µM and inactive = higher.
Tests used:
Test in all cases: DTP human tumour cell line panel, 48 h
[1] = system: MCF7
[2] = system: SNB-19
[3] = system: SK-OV-3
[4] = system: NCI-H23
[5] = system: 786-0
[6] = system: UACC-62
[7] = system: SF-539
[8] = system: RPMI-8226
[9] = system: UO-31
[10] = system: KM12
[11] = system: HCT-116
[12] = system: M14
[13] = system: OVCAR-4
[14] = system: K562
[15] = system: TK-10
[16] = system: Malme-3M
[17] = system: NCI-H226
[18] = system: A498
[19] = system: T47D

SMILES	GI50 [1]	GI50 [2]	GI50 [3]	GI50 [4]	GI50 [5]	GI50 [6]	GI50 [7]	GI50 [8]	GI50 [9]	GI50 [10]	GI50 [11]	GI50 [12]	GI50 [13]	GI50 [14]	GI50 [15]	GI50 [16]	GI50 [17]	GI50 [18]	GI50 [19]
COc1ccc(-c2nc3ncccn3c2-c2ccc(S(C)(=O)=O)cc2)cc1	22.3 µM (inactive)	> 100 µM (inactive)	90.4 µM (inactive)	> 100 µM (inactive)	> 100 µM (inactive)	53.6 µM (inactive)	> 100 µM (inactive)	41.7 µM (inactive)	> 100 µM (inactive)	> 100 µM (inactive)	> 100 µM (inactive)	> 100 µM (inactive)	> 100 µM (inactive)	> 100 µM (inactive)					
O=C(O)CCCn1nnc2c(=O)[nH][nH]c(=O)c21	> 100 µM (inactive)	> 100 µM (inactive)		> 100 µM (inactive)	> 100 µM (inactive)			> 100 µM (inactive)	> 100 µM (inactive)	> 100 µM (inactive)	> 100 µM (inactive)	> 100 µM (inactive)	> 100 µM (inactive)	> 100 µM (inactive)	> 100 µM (inactive)	> 100 µM (inactive)			
O=c1c2c(nc3n1CCC3)sc1c(O)c(Br)ccc12		54.7 µM (inactive)	23.9 µM (inactive)	27 µM (inactive)	17.5 µM (inactive)	17.4 µM (inactive)	15.5 µM (inactive)	21.3 µM (inactive)	18.8 µM (inactive)	14.3 µM (inactive)	15.2 µM (inactive)	> 100 µM (inactive)	17.7 µM (inactive)	19.3 µM (inactive)	19.1 µM (inactive)	17.5 µM (inactive)	19.6 µM (inactive)	10.5 µM (inactive)	
CCCCCCOC(=O)C(N)Cc1ccc(OC)cc1 (centres undefined)	> 100 µM (inactive)	> 100 µM (inactive)	> 100 µM (inactive)	> 100 µM (inactive)	> 100 µM (inactive)	> 100 µM (inactive)	> 100 µM (inactive)		> 100 µM (inactive)	> 100 µM (inactive)	> 100 µM (inactive)	> 100 µM (inactive)	> 100 µM (inactive)	> 100 µM (inactive)	> 100 µM (inactive)	> 100 µM (inactive)	> 100 µM (inactive)		> 100 µM (inactive)
COc1ccccc1/C=C(\C#N)C(=O)c1ccccc1		> 100 µM (inactive)	> 100 µM (inactive)	> 100 µM (inactive)	> 100 µM (inactive)	> 100 µM (inactive)	> 100 µM (inactive)	> 100 µM (inactive)	> 100 µM (inactive)	> 100 µM (inactive)	> 100 µM (inactive)	> 100 µM (inactive)	> 100 µM (inactive)	> 100 µM (inactive)		> 100 µM (inactive)	> 100 µM (inactive)	> 100 µM (inactive)	
COc1cc2c(c3oc4c(O)cccc4c(=O)c13)CC(C(C)(O)CO)O2 (centres undefined)	19.5 µM (inactive)	94.4 µM (inactive)		95.7 µM (inactive)	65.6 µM (inactive)	27.1 µM (inactive)	60.3 µM (inactive)	> 100 µM (inactive)	> 100 µM (inactive)		40.6 µM (inactive)	> 100 µM (inactive)		55.6 µM (inactive)	> 100 µM (inactive)	47.5 µM (inactive)	> 100 µM (inactive)		75.7 µM (inactive)
CCOC(=O)NC(OC)(C(F)(F)F)C(F)(F)F	> 100 µM (inactive)	> 100 µM (inactive)	46.9 µM (inactive)	> 100 µM (inactive)	> 100 µM (inactive)	> 100 µM (inactive)	> 100 µM (inactive)	> 100 µM (inactive)	> 100 µM (inactive)		> 100 µM (inactive)	> 100 µM (inactive)	> 100 µM (inactive)	> 100 µM (inactive)	> 100 µM (inactive)	> 100 µM (inactive)	> 100 µM (inactive)	> 100 µM (inactive)	
COc1cc(OC)c2nc(C)c3c(c2c1)NCC3	3.94 µM (inactive)	12.6 µM (inactive)	14.3 µM (inactive)	6.34 µM (inactive)	4.42 µM (inactive)	9.16 µM (inactive)	4.32 µM (inactive)		8.73 µM (inactive)		3.47 µM (inactive)	11.6 µM (inactive)	3.63 µM (inactive)	0.776 µM (active)	7.91 µM (inactive)	10.4 µM (inactive)	3.47 µM (inactive)	13.7 µM (inactive)	
Cn1c(-c2ccc(-c3cc(-c4cccs4)c(-c4cccs4)n3C)cc2)cc(-c2cccs2)c1-c1cccs1	> 100 µM (inactive)	> 100 µM (inactive)	> 100 µM (inactive)		> 100 µM (inactive)	> 100 µM (inactive)	> 100 µM (inactive)	> 100 µM (inactive)	> 100 µM (inactive)	> 100 µM (inactive)	> 100 µM (inactive)	> 100 µM (inactive)	> 100 µM (inactive)	> 100 µM (inactive)	> 100 µM (inactive)		> 100 µM (inactive)		> 100 µM (inactive)
COC1(C)/C=N/CC(C)(C)NC(=O)C(C)(OC)/C=N/CC(C)(C)NC1=O (centres undefined)	> 10 µM (inactive)	> 10 µM (inactive)	> 10 µM (inactive)	> 10 µM (inactive)	> 10 µM (inactive)	> 10 µM (inactive)	> 10 µM (inactive)	> 10 µM (inactive)		> 10 µM (inactive)	> 10 µM (inactive)	> 10 µM (inactive)	> 10 µM (inactive)	> 10 µM (inactive)	> 10 µM (inactive)	> 10 µM (inactive)			> 10 µM (inactive)
C=CCON(C(=O)OC(C)(C)C)C(C)(C)C		> 100 µM (inactive)	> 100 µM (inactive)	> 100 µM (inactive)	> 100 µM (inactive)	> 100 µM (inactive)		> 100 µM (inactive)	> 100 µM (inactive)	> 100 µM (inactive)	> 100 µM (inactive)	> 100 µM (inactive)	1.55 µM (inactive)	> 100 µM (inactive)	> 100 µM (inactive)	> 100 µM (inactive)	> 100 µM (inactive)	> 100 µM (inactive)	> 100 µM (inactive)
NNC(=O)c1nn[nH]c1SSc1[nH]nnc1C(=O)NN	> 100 µM (inactive)	> 100 µM (inactive)	> 100 µM (inactive)	> 100 µM (inactive)	> 100 µM (inactive)	> 100 µM (inactive)	> 100 µM (inactive)		> 100 µM (inactive)	> 100 µM (inactive)	> 100 µM (inactive)	> 100 µM (inactive)	> 100 µM (inactive)		> 100 µM (inactive)		> 100 µM (inactive)		
CCOc1ncn(-c2ccc(NC(=S)NC3OC(CO)C(O)C(O)C3O)cc2)n1 (centres undefined)	> 100 µM (inactive)	> 100 µM (inactive)	> 100 µM (inactive)	> 100 µM (inactive)	> 100 µM (inactive)	> 100 µM (inactive)	> 100 µM (inactive)	> 100 µM (inactive)	> 100 µM (inactive)	> 100 µM (inactive)	> 100 µM (inactive)	> 100 µM (inactive)	> 100 µM (inactive)	> 100 µM (inactive)	> 100 µM (inactive)				> 100 µM (inactive)
